# In PMC12406204 (Journal of Medicinal Chemistry, 2025):
# Tests used:
# [1] = Kinetic solubility (nephelometry); type: physicochemical; conditions: 37 °C, aqueous buffer, kinetic from dmso stock; 1:99 DMSO/PSB buffer; PBS pH 7
# Protocol: The solubility of selected compounds was evaluated by following a previously described method. A 10 mM stock solution of the compound was serially diluted in 100% DMSO and 2.5 μL of this solution was added to a 384-well UV-transparent plate (Greiner) containing 47.5 μL of PBS (pH = 7). The plate was incubated at 37 °C for 4 h and the light scattering was measured in a Nephelostar plus reader (BMG LABTECH). The data was fitted to a segmented linear regression for measuring the compound solubility.
# [2] = Human microsomal stability; type: in vitro ADME; conditions: for microsomal stability % remanent: Human, sampling time 60 min; for microsomal CLint / half-life: human, liver microsomes, pH 7.4; for half-life: read-out: microsomal stability t1/2
# Protocol: The human microsomal stability of selected compounds was evaluated by following a previously described method. The human microsomes employed were purchased from Tebu-Xenotech. The compound was incubated with the microsomes at 37 °C in a 50 mM phosphate buffer (pH = 7.4) containing 3 mM MgCl2, 1 mM NADP, 10 mM glucose-6-phosphate and 1 U/mL glucose-6-phosphate-dehydrogenase. Samples (75 μL) were taken from each well at 0, 10, 20, 40, and 60 min and transferred to a plate containing 4 °C 75 μL acetonitrile and 30 μL of 0.5% formic acid in water were added for improving the chromatographic conditions. The plate was centrifuged ([…], 30 min) and supernatants were taken and analyzed in an UPLC-MS/MS (Xevo-TQD, Waters) by employing a BEH C18 column and an isocratic gradient of 0.1% formic acid in water: 0.1% formic acid acetonitrile (60:40). The metabolic stability of the compounds was calculated from the logarithm of the remaining compounds at each of the time point studied.
# [3] = Mouse microsomal stability; type: in vitro ADME; conditions: for microsomal stability % remanent: Mouse, sampling time 60 min; for microsomal CLint / half-life: mouse, microsomes, pH 7.4; for half-life: read-out: microsomal stability t1/2
# SH-SY5Y cells = assay: Neurite length in differentiated SH-SY5Y cells transfected with MAPT P301L + APP V717I; type: cell-based, human; conditions: for neuroprotective effect in presence of CB2R antagonist SR144528: 100 and 10 nM, SR144528 1 μM
# Source text: Finally, to further validate these effects, a neuron-like in vitro model using differentiated SH-SY5Y cells was employed (Figure ). […] To simulate neurodegenerative conditions, cells were transiently transfected with expression plasmids encoding the MAPT P301L and APP V717I mutations. The MAPT P301L mutation promotes pathological tau hyperphosphorylation and aggregation, leading to microtubule destabilization, impaired axonal transport, and neurite retraction. , Meanwhile, the APP V717I mutation increases the production of long, aggregation-prone amyloidogenic peptides, disrupting cellular homeostasis through oxidative stress and cytoskeletal disorganization. ,
# SH-SY5Y human neuroblastoma-derived cells (ECACC, 94030304) were cultured and differentiated in black 384-well plates (Revvity, 6057300). Plates were treated with laminin (1:500 dilution in PBS; Merck, L2020) by adding 25 μL per well and incubated for 2 h at room temperature. Subsequently, plates were washed three times with PBS. Cells were seeded at a density of 6.6 × 10^3 cells per well (in 50 μL) in culture medium. The base culture medium consisted of RPMI-1640 (Gibco, 61870) supplemented with 2% (v/v) fetal bovine serum (FBS; Merck, F7524), 1% (v/v) penicillin-streptomycin (P/S; Merck, P0781), and 0.1% (v/v) gentamicin (Merck, G1397).
# Differentiation was initiated 24 h after plating. The culture medium was replaced with a differentiation medium composed of RPMI-1640 supplemented with 2% (v/v) FBS, 1% (v/v) P/S, 0.1% (v/v) gentamicin, and 10 μM all-trans retinoic acid (RA; Merck, R2625). Medium changes were performed every 3 days, and the plates were kept covered with aluminum foil to protect retinoic acid from light exposure. Six days later, cells were transfected with expression plasmids encoding MAPT P301L and APP V717I mutations employing Lipofectamine LTX (Thermo Fisher, 15338100) at a 1:2 proportion in Opti-MEM (Gibco, 11058-021) following the instructions of the manufacturer. After 6 h, the transfection medium was replaced with a differentiation medium composed of RPMI-1640, B27 supplement (1:50; Gibco, 17504), 1% (v/v) P/S, 0.1% (v/v) gentamicin, and 100 nM GLP-1 (Merck, G9416). 24 h later, test compounds were added using an Echo 650T acoustic dispenser (Labcyte) from a 10 mM stock solution in DMSO (Merck, D8418).
# 48 h after compound dispensation, cells were fixed with 4% paraformaldehyde (50 μL per well, Santa Cruz BT, sc-281692) for 20 min at 4 °C. Wells were then washed twice with HBSS (50 μL per wash, Merck, H8264) and incubated with 50 μL of blocking buffer for 30 min at room temperature. The blocking buffer consisted of HBSS supplemented with 5% BSA (w/v) (Merck, 10775835001) and 0.1% (v/v) Triton X-100 (Merck, T8787). After blocking, cells were incubated with an antibeta-tubulin antibody conjugated to Alexa Fluor 488 (1:500; BD Biosciences, 558605) and Draq5 nuclear stain (2.5 μM; Abcam, ab108410) diluted in blocking buffer. After incubation in the dark at room temperature, wells were washed once with 50 μL of HBSS and subsequently filled with 50 μL of blocking buffer prior to imaging.Images were acquired using an Operetta CLS High Content Screening System (Revvity) equipped with a 20× water-immersion objective. Fluorescent signals were detected using specific excitation/emission filter settings for each fluorophore: Alexa Fluor 488 (λex = 460–490 nm; λem = 500–550 nm) and Draq5 (λex = 615–645 nm; λem = 655–760 nm). For each well, nine nonoverlapping fields were captured under identical acquisition settings. Neurite length and complexity were quantified using Harmony software (version 4.9.2137.273; Revvity), applying a predefined analysis algorithm optimized for β-tubulin immunostaining. For each experiment, data were normalized to the average neurite length measured in the double-transfected condition (MAPT P301L + APP V717I) treated with vehicle, which was assigned a reference value of 100%. […]
# CB1R = CB1R (Homo sapiens, UniProt P21554); assay: CB1R Gi protein-mediated cAMP inhibition assay; type: cell-based; conditions: for functional selectivity ratio: CB1R vs CB2R cAMP EC50
# Source text: Given their excellent CB2R functional activity and ability to cross the blood–brain barrier, compounds 18p and 18o were selected for CB1R functional evaluation to assess potential risks of CB1R-mediated central effects. […] Full CB1R dose–response curves are provided in the Supporting Information (Figure S6).
# CB1R, sequence (P21554 whole entry): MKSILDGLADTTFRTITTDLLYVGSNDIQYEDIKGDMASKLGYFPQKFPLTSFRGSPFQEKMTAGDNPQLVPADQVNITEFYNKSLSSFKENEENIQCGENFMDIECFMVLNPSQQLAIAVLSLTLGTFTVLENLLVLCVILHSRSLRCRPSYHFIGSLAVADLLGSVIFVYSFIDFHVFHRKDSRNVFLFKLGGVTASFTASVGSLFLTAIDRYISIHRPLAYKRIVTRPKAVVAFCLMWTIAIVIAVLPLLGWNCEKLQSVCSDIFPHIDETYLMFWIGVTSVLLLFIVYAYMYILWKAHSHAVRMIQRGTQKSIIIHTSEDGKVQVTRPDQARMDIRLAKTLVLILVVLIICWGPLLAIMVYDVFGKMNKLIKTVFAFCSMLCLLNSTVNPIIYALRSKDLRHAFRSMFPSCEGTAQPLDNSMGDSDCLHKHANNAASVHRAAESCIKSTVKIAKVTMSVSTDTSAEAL
SMILES,solubility at 4 h [1] [µM],microsomal stability % remanent [2] [%],microsomal CLint [2] [µL/min/mg],half-life [2] [min],microsomal stability % remanent [3] [%],microsomal CLint [3] [µL/min/mg],half-life [3] [min],protective effect against neurite shortening (SH-SY5Y cells; 1 nM),protective effect against neurite shortening (SH-SY5Y cells; 10 nM to 1 μM),neuroprotective effect in presence of CB2R antagonist SR144528 (SH-SY5Y cells),EC50 (CB1R) [nM],Emax (CB1R) [%],functional selectivity ratio (CB1R)
NC(=O)[C@@H]1CCCCN1C(=O)c1cn(CC2CCCCC2)c2ccccc12 [18e],40.1,15.9,67.3,19.4,22.3,54.3,21.8,neither compound produced a statistically significant effect,significant concentration-dependent protective effect,reversed,,,
NC(=O)[C@@H]1CCCCN1C(=O)c1nn(Cc2ccc(F)cc2)c2ccccc12 [18o],43.7,59.6,11.8,50.9,28.4,26.1,28,neither compound produced a statistically significant effect,significant concentration-dependent protective effect,reversed,1070 ± 57,36,> 1780
NC(=O)[C@H]1CCCCN1C(=O)c1nn(Cc2ccc(F)cc2)c2ccccc12 [18p],,,,,,,,,,,755 ± 31,45,111
